Experimental findings from PubChem BioAssay AID248 (DTP/NCI, 2004) are described below.

The assay has as its system L1210 leukemia ip in BDF1 mice, survival T/C. As to the kind of experiment: NCI In Vivo Anticancer Drug Screen. Data for tumor model L1210 Leukemia (intraperitoneal) in B6D2F1 (BDF1) mice. The following applies: endpoint: mean survival time, higher = longer survival. The method, boiled down:
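Value reflects the ratio of survival in compound-treated mice to survival in vehicle-treated controls, with both groups carrying the same transplanted tumor.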

[1] abbreviates: dose: 100.0 mg/kg/injection, schedule: Q01DX009 (ip), vehicle: saline with Tween-80.
The mark [2] stands for this setting: dose: 100.0 mg/kg/injection, schedule: Q01DX001 (ip), vehicle: saline.
Where [3] appears, read: dose: 200.0 mg/kg/injection, schedule: Q01DX009 (ip), vehicle: saline with Tween-80.
Where [4] appears, read: dose: 100.0 mg/kg/injection, schedule: Q01DX009 (ip), vehicle: Klucel (hydroxypropylcellulose) (HPC).
The mark [5] stands for this setting: dose: 200.0 mg/kg/injection, schedule: Q01DX009 (ip), vehicle: Klucel (hydroxypropylcellulose) (HPC).

Each structure is given as a SMILES string. Where “and” joins values, the source holds several entries; their conditions need not be identical. Equal entries are not always repeated. Toxic doses and inconclusive results are not listed.

Turning to `CN(C)N=Nc1ccccc1C(N)=O`, the T/C (dose: 20.0 mg/kg/injection, schedule: Q01DX009 (ip), vehicle: Klucel (hydroxypropylcellulose) (HPC)) is 110 % of control; the T/C (dose: 30.0 mg/kg/injection, schedule: Q01DX009 (ip), vehicle: Klucel (hydroxypropylcellulose) (HPC)) was 110 % of control; the T/C (dose: 31.25 mg/kg/injection, schedule: Q01DX009 (ip), vehicle: saline with Tween-80) is 108 % of control; the T/C (dose: 37.25 mg/kg/injection, schedule: Q01DX009 (ip), vehicle: saline with Tween-80) is 112 % of control; the T/C (dose: 37.5 mg/kg/injection, schedule: Q04DX003 (ip), vehicle: saline with Tween-80) was 108 % of control; the T/C (dose: 45.0 mg/kg/injection, schedule: Q01DX009 (ip), vehicle: Klucel (hydroxypropylcellulose) (HPC)) was 119 % of control. Besides, the T/C was 104 % of control (dose: 55.25 mg/kg/injection, schedule: Q04DX003 (ip), vehicle: saline with Tween-80); 111 % of control (dose: 62.5 mg/kg/injection, schedule: Q01DX001 (ip), vehicle: saline with Tween-80); 120 % of control (dose: 67.0 mg/kg/injection, schedule: Q01DX009 (ip), vehicle: other); 102 % of control (dose: 67.0 mg/kg/injection, schedule: Q01DX009 (ip), vehicle: saline with Tween-80); 119 % of control (dose: 74.5 mg/kg/injection, schedule: Q01DX009 (ip), vehicle: saline with Tween-80); 107 % of control (dose: 75.0 mg/kg/injection, schedule: Q01DX001 (ip), vehicle: other). Besides, the T/C by setting is: (dose: 75.0 mg/kg/injection, schedule: Q04DX003 (ip), vehicle: saline with Tween-80) 116 % of control; under setting [1], 109 % of control; (dose: 110.5 mg/kg/injection, schedule: Q04DX003 (ip), vehicle: saline with Tween-80) 122 % of control; (dose: 125.0 mg/kg/injection, schedule: Q01DX001 (ip), vehicle: saline with Tween-80) 110 % of control; (dose: 125.0 mg/kg/injection, schedule: Q01DX009 (ip), vehicle: saline with Tween-80) 86 % of control; (dose: 149.0 mg/kg/injection, schedule: Q01DX009 (ip), vehicle: saline with Tween-80) 156 % of control. Also, the T/C (dose: 150.0 mg/kg/injection, schedule: Q01DX001 (ip), vehicle: other) is 107 % of control; the T/C (dose: 150.0 mg/kg/injection, schedule: Q01DX001 (ip), vehicle: saline with Tween-80) was 109 % of control; the T/C (dose: 150.0 mg/kg/injection, schedule: Q01DX009 (ip), vehicle: other) was 150 % of control; the T/C (dose: 150.0 mg/kg/injection, schedule: Q01DX009 (ip), vehicle: saline with Tween-80) is 117 % of control; the T/C (dose: 150.0 mg/kg/injection, schedule: Q04DX003 (ip), vehicle: saline with Tween-80) is 120 % of control; the T/C (dose: 221.0 mg/kg/injection, schedule: Q04DX003 (ip), vehicle: saline with Tween-80) is 150 % of control. The T/C is 123 % of control (dose: 300.0 mg/kg/injection, schedule: Q01DX001 (ip), vehicle: other) and 106 % of control (dose: 300.0 mg/kg/injection, schedule: Q04DX003 (ip), vehicle: saline with Tween-80).

Turning to `C=C1C(=O)O[C@@H]2[C@H]1CC[C@H](C)[C@@H]1CCC(=O)[C@@]21C`, the T/C runs as follows: under setting [2], 102 % of control; (dose: 200.0 mg/kg/injection, schedule: Q01DX001 (ip), vehicle: saline) 100 % of control; (dose: 400.0 mg/kg/injection, schedule: Q01DX001 (ip), vehicle: saline) 98 % of control.

In the case of `NC(=S)NCC12CC3CC(CC(C3)C1)C2`, the T/C reads like this: (dose: 3.0 mg/kg/injection, schedule: Q04DX002 (ip), vehicle: Klucel (hydroxypropylcellulose) (HPC)) 101 % of control and 114 % of control; (dose: 6.0 mg/kg/injection, schedule: Q04DX002 (ip), vehicle: Klucel (hydroxypropylcellulose) (HPC)) 106 % of control and 120 % of control; (dose: 12.0 mg/kg/injection, schedule: Q04DX002 (ip), vehicle: Klucel (hydroxypropylcellulose) (HPC)) 112 % of control; (dose: 12.5 mg/kg/injection, schedule: Q04DX002 (ip), vehicle: Klucel (hydroxypropylcellulose) (HPC)) 105 % of control; (dose: 25.0 mg/kg/injection, schedule: Q04DX002 (ip), vehicle: Klucel (hydroxypropylcellulose) (HPC)) 101 % of control.

As to `C#CC(C)OCC(C)OC` (configuration not stated), the T/C by setting is: (dose: 25.0 mg/kg/injection, schedule: Q01DX009 (ip), vehicle: acetone) 97 % of control; (dose: 50.0 mg/kg/injection, schedule: Q01DX009 (ip), vehicle: acetone) 103 % of control; (dose: 100.0 mg/kg/injection, schedule: Q04DX003 (ip), vehicle: acetone) 102 % of control.

For `CS(=O)(=O)c1nc2[nH]c(=O)[nH]c(=O)c2cc1C#N`, the T/C (dose: 25.0 mg/kg/injection, schedule: Q01DX001 (ip), vehicle: Klucel (hydroxypropylcellulose) (HPC)) was 93 % of control; the T/C (dose: 50.0 mg/kg/injection, schedule: Q01DX001 (ip), vehicle: Klucel (hydroxypropylcellulose) (HPC)) was 98 % of control; the T/C (dose: 100.0 mg/kg/injection, schedule: Q01DX001 (ip), vehicle: Klucel (hydroxypropylcellulose) (HPC)) is 97 % of control.

Turning to `COC(OC)c1[nH]c(=S)[nH]c(=O)c1Cc1ccc(C)c(C)c1`, the T/C by setting is: under setting [1], 104 % of control; (dose: 100.0 mg/kg/injection, schedule: Q04DX003 (ip), vehicle: saline with Tween-80) 94 % of control; under setting [3], 96 % of control; (dose: 200.0 mg/kg/injection, schedule: Q04DX003 (ip), vehicle: saline with Tween-80) 96 % of control; (dose: 400.0 mg/kg/injection, schedule: Q01DX009 (ip), vehicle: saline with Tween-80) 87 % of control; (dose: 400.0 mg/kg/injection, schedule: Q04DX003 (ip), vehicle: saline with Tween-80) 100 % of control.

As to `Cc1ccc(S(=O)(=O)NNC(=O)c2ccc[nH]2)cc1`, the T/C by setting is: (dose: 75.0 mg/kg/injection, schedule: Q01DX001 (ip), vehicle: saline) 101 % of control; (dose: 150.0 mg/kg/injection, schedule: Q01DX001 (ip), vehicle: saline) 101 % of control; (dose: 300.0 mg/kg/injection, schedule: Q01DX001 (ip), vehicle: saline) 96 % of control.

Take `C=CCNc1ccc(OC)cc1`: the T/C reads like this: (dose: 50.0 mg/kg/injection, schedule: Q01DX009 (ip), vehicle: saline with Tween-80) 88 % of control; under setting [1], 96 % of control; under setting [3], 98 % of control.

Take `CSc1ccc(NC(=O)Oc2cc(C)ccc2C(C)C)cc1`: the T/C was 94 % of control (dose: 50.0 mg/kg/injection, schedule: Q01DX009 (ip), vehicle: Klucel (hydroxypropylcellulose) (HPC)); 100 % of control and 88 % of control under setting [4]; 89 % of control under setting [5]; 91 % of control (dose: 400.0 mg/kg/injection, schedule: Q01DX009 (ip), vehicle: Klucel (hydroxypropylcellulose) (HPC)).

Consider `O=C(/C=C/c1ccccc1)NN1CCCCC1`, for which the T/C under setting [4] is 94 % of control; the T/C (dose: 100.0 mg/kg/injection, schedule: Q04DX003 (ip), vehicle: Klucel (hydroxypropylcellulose) (HPC)) is 100 % of control; the T/C under setting [5] was 110 % of control; the T/C (dose: 200.0 mg/kg/injection, schedule: Q04DX003 (ip), vehicle: Klucel (hydroxypropylcellulose) (HPC)) is 98 % of control.

Regarding `CCCCCCN(CCCCCC)P(=O)(N1CC1C)N1CC1C` (configuration not stated), the T/C (dose: 50.0 mg/kg/injection, schedule: Q01DX001 (ip), vehicle: saline) was 104 % of control and the T/C under setting [2] is 101 % of control.
